According to PubChem BioAssay (NCI):
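Cultured in 96-well plates, cells were exposed to test compound for 48 hours across five concentrations. GI50 is the concentration that inhibits growth by half. The concentration for full growth arrest is given as TGI.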

Legend:
Experiment in all cases: NCI anticancer screen, dose series, 48 h
A549 NSCLC = tested on: A549 NSCLC
CAKI-1 renal = tested on: CAKI-1 renal
COLO 205 colon = tested on: COLO 205 colon
HL-60(TB) leukemia = tested on: HL-60(TB) leukemia
HT29 colon = tested on: HT29 colon
NCI-H23 lung = tested on: NCI-H23 lung
OVCAR-5 ovarian = tested on: OVCAR-5 ovarian
RPMI-8226 leukemia = tested on: RPMI-8226 leukemia
SN12C renal = tested on: SN12C renal
SNB-19 CNS = tested on: SNB-19 CNS

**Q.** Which results are given for `CC1=CC(=O)c2[nH]c3ccccc3c2C1=O`?
**A.** TGI (A549 NSCLC): > 25 µM; GI50 (CAKI-1 renal): 14.4 µM; TGI (CAKI-1 renal): > 25 µM; GI50 (COLO 205 colon): 4.12 µM; TGI (COLO 205 colon): 7.55 µM; GI50 (HL-60(TB) leukemia): 4.06 µM; TGI (HL-60(TB) leukemia): 9.85 µM; GI50 (HT29 colon): 17.6 µM; TGI (HT29 colon): > 25 µM; GI50 (NCI-H23 lung): 3.69 µM; TGI (NCI-H23 lung): 7.28 µM; TGI (OVCAR-5 ovarian): 12.2 µM; TGI (RPMI-8226 leukemia): 14.7 µM; GI50 (SN12C renal): 4.59 µM; TGI (SN12C renal): 8.17 µM; TGI (SNB-19 CNS): > 25 µM

**Q.** `Cn1cc(/C=C2\C(=O)Nc3cccnc32)c2ccccc21` was tested. Which GI50 (A549 NSCLC) did it give?
**A.** 11.8 µM

**Q.** What about the TGI (A549 NSCLC) of the same compound?
**A.** > 25 µM

**Q.** What about the GI50 (CAKI-1 renal) of the same compound?
**A.** 10.2 µM

**Q.** What about the TGI (CAKI-1 renal) of the same compound?
**A.** > 25 µM

**Q.** And the GI50 (COLO 205 colon)?
**A.** 20.6 µM

**Q.** And the TGI (COLO 205 colon)?
**A.** > 25 µM

**Q.** And the GI50 (HL-60(TB) leukemia)?
**A.** > 22.5 µM

**Q.** What about the TGI (HL-60(TB) leukemia) of the same compound?
**A.** > 25 µM

**Q.** And the GI50 (HT29 colon)?
**A.** 13.1 µM

**Q.** What about the TGI (HT29 colon) of the same compound?
**A.** > 25 µM

**Q.** What about the GI50 (NCI-H23 lung) of the same compound?
**A.** 10.9 µM

**Q.** And the TGI (NCI-H23 lung)?
**A.** > 25 µM

**Q.** And the GI50 (OVCAR-5 ovarian)?
**A.** > 25 µM

**Q.** What about the TGI (OVCAR-5 ovarian) of the same compound?
**A.** > 25 µM

**Q.** What about the GI50 (RPMI-8226 leukemia) of the same compound?
**A.** > 25 µM

**Q.** What about the TGI (RPMI-8226 leukemia) of the same compound?
**A.** > 25 µM

**Q.** What about the GI50 (SN12C renal) of the same compound?
**A.** 9.88 µM

**Q.** What about the TGI (SN12C renal) of the same compound?
**A.** > 25 µM

**Q.** What about the GI50 (SNB-19 CNS) of the same compound?
**A.** > 25 µM

**Q.** And the TGI (SNB-19 CNS)?
**A.** > 25 µM

**Q.** For `C/C(=N\n1c(N)c(C#N)c(-c2ccc(Cl)cc2)c(C#N)c1=O)c1cccnc1`, which GI50 (A549 NSCLC) is on record?
**A.** > 100 µM

**Q.** What about the TGI (A549 NSCLC) of the same compound?
**A.** > 100 µM

**Q.** And the GI50 (CAKI-1 renal)?
**A.** > 100 µM

**Q.** And the TGI (CAKI-1 renal)?
**A.** > 100 µM

**Q.** And the GI50 (COLO 205 colon)?
**A.** > 100 µM

**Q.** And the TGI (COLO 205 colon)?
**A.** > 100 µM

**Q.** What about the GI50 (HT29 colon) of the same compound?
**A.** > 100 µM

**Q.** What about the TGI (HT29 colon) of the same compound?
**A.** > 100 µM

**Q.** What about the GI50 (NCI-H23 lung) of the same compound?
**A.** > 100 µM

**Q.** What about the TGI (NCI-H23 lung) of the same compound?
**A.** > 100 µM

**Q.** And the GI50 (OVCAR-5 ovarian)?
**A.** > 100 µM

**Q.** And the TGI (OVCAR-5 ovarian)?
**A.** > 100 µM

**Q.** And the GI50 (RPMI-8226 leukemia)?
**A.** > 100 µM

**Q.** What about the TGI (RPMI-8226 leukemia) of the same compound?
**A.** > 100 µM

**Q.** What about the GI50 (SN12C renal) of the same compound?
**A.** > 100 µM

**Q.** What about the TGI (SN12C renal) of the same compound?
**A.** > 100 µM

**Q.** And the GI50 (SNB-19 CNS)?
**A.** > 100 µM

**Q.** What about the TGI (SNB-19 CNS) of the same compound?
**A.** > 100 µM

**Q.** Which results are given for `C(=C1/CCCCC([n+]2ccccc2)=N1)/c1ccccc1`?
**A.** TGI (A549 NSCLC): > 100 µM; TGI (CAKI-1 renal): > 100 µM; TGI (COLO 205 colon): > 100 µM; TGI (HL-60(TB) leukemia): > 100 µM; TGI (HT29 colon): > 100 µM; TGI (NCI-H23 lung): > 100 µM; TGI (OVCAR-5 ovarian): > 100 µM; TGI (RPMI-8226 leukemia): > 100 µM; TGI (SN12C renal): > 100 µM

**Q.** Which TGI (A549 NSCLC) does the source give for `C[P+](C)(CC(F)(F)F)c1ccccc1` here?
**A.** > 100 µM

**Q.** What about the TGI (COLO 205 colon) of the same compound?
**A.** > 100 µM

**Q.** And the TGI (HL-60(TB) leukemia)?
**A.** > 100 µM

**Q.** What about the TGI (HT29 colon) of the same compound?
**A.** > 100 µM

**Q.** And the TGI (NCI-H23 lung)?
**A.** > 100 µM

**Q.** And the TGI (OVCAR-5 ovarian)?
**A.** > 100 µM

**Q.** What about the TGI (RPMI-8226 leukemia) of the same compound?
**A.** > 100 µM

**Q.** What about the TGI (SN12C renal) of the same compound?
**A.** > 100 µM

**Q.** What about the TGI (SNB-19 CNS) of the same compound?
**A.** > 100 µM

**Q.** How did the TGI (A549 NSCLC) turn out when `C[Si](C)(C)[C@@]1([Se]c2ccccc2)CC[C@@H]1C(=O)c1ccccc1` was run?
**A.** > 100 µM

**Q.** What about the TGI (CAKI-1 renal) of the same compound?
**A.** > 100 µM

**Q.** What about the TGI (COLO 205 colon) of the same compound?
**A.** > 100 µM

**Q.** What about the TGI (HT29 colon) of the same compound?
**A.** > 100 µM

**Q.** What about the TGI (NCI-H23 lung) of the same compound?
**A.** > 100 µM

**Q.** And the TGI (OVCAR-5 ovarian)?
**A.** > 100 µM

**Q.** And the TGI (RPMI-8226 leukemia)?
**A.** 53 µM

**Q.** What about the TGI (SN12C renal) of the same compound?
**A.** > 100 µM

**Q.** And the TGI (SNB-19 CNS)?
**A.** > 100 µM

**Q.** Which results are given for `O=C1CCC(c2ccccc2)(c2ccccc2)CC1`?
**A.** TGI (A549 NSCLC): > 100 µM; TGI (CAKI-1 renal): > 100 µM; TGI (COLO 205 colon): 89.9 µM; TGI (HL-60(TB) leukemia): 81 µM; TGI (HT29 colon): > 100 µM; TGI (NCI-H23 lung): > 100 µM; TGI (OVCAR-5 ovarian): > 100 µM; TGI (RPMI-8226 leukemia): > 100 µM; TGI (SN12C renal): > 100 µM; TGI (SNB-19 CNS): > 100 µM

**Q.** For `O=C(O)c1oc2ccc([N+](=O)[O-])c3c2c1CCC3`, which TGI (A549 NSCLC) is on record?
**A.** > 100 µM

**Q.** What about the TGI (CAKI-1 renal) of the same compound?
**A.** > 100 µM

**Q.** What about the TGI (COLO 205 colon) of the same compound?
**A.** > 100 µM

**Q.** And the TGI (HL-60(TB) leukemia)?
**A.** > 100 µM

**Q.** What about the TGI (HT29 colon) of the same compound?
**A.** > 100 µM

**Q.** And the TGI (NCI-H23 lung)?
**A.** > 100 µM

**Q.** And the TGI (OVCAR-5 ovarian)?
**A.** > 100 µM

**Q.** What about the TGI (SN12C renal) of the same compound?
**A.** > 100 µM

**Q.** And the TGI (SNB-19 CNS)?
**A.** > 100 µM

**Q.** What does the source list for `O=C1CCCC2COc3ccc(O)c1c32` (centres undefined)?
**A.** TGI (A549 NSCLC): > 100 µM; TGI (COLO 205 colon): > 100 µM; TGI (HL-60(TB) leukemia): > 100 µM; TGI (HT29 colon): > 100 µM; TGI (NCI-H23 lung): > 100 µM; TGI (OVCAR-5 ovarian): > 100 µM; TGI (RPMI-8226 leukemia): > 100 µM; TGI (SN12C renal): > 100 µM; TGI (SNB-19 CNS): > 100 µM
